Among the data in ChEMBL document CHEMBL4041507, “Design, synthesis and biological evaluation of [1,2,4]triazolo[1,5-a]pyrimidines as potent lysine specific demethylase 1 (LSD1/KDM1A) inhibitors” (Eur J Med Chem, 2017) are IC50 and inhibition of growth values, retold here.

Experiment [1] concerns the target Lysine-specific histone demethylase 1A (Homo sapiens, UniProt O60341).
Description: Inhibition of recombinant human LSD1 (157 to 852 residues) expressed in Escherichia coli BL21(DE3) using H3K4me2 as substrate preincubated for 1 hr followed by substrate addition by fluorescence assay
Experiment [2] deals with MGC-803. Put plainly: cells. The settings on record: Homo sapiens, MGC-803, read-out: GI.
Description: Cytotoxicity against human MGC803 cells assessed as growth inhibition at 10 uM by MTT assay relative to control
Experiment [3] relates to ECa-109 cell line. Briefly: cells. The settings on record: Homo sapiens, ECa-109, read-out: GI.
Description: Cytotoxicity against human EC109 cells assessed as growth inhibition at 10 uM by MTT assay relative to control
Experiment [4] has as its system A549. Briefly: cells. To be noted: Homo sapiens, A549, read-out: GI.
Description: Cytotoxicity against human A549 cells assessed as growth inhibition at 10 uM by MTT assay relative to control
For experiment [5], the system named is PC-9. Briefly: cells. The settings on record: Homo sapiens, PC-9, read-out: GI.
Description: Cytotoxicity against human PC9 cells assessed as growth inhibition at 10 uM by MTT assay relative to control
Experiment [6] concerns A549. Briefly: cells. To be noted: Homo sapiens.
Description: Cytotoxicity against human A549 cells assessed as growth inhibition by MTT assay
The subject of experiment [7] is PC-9. Put plainly: cells. The settings on record: Homo sapiens.
Description: Cytotoxicity against human PC9 cells assessed as growth inhibition by MTT assay

As usually defined, the IC50 is the point on the concentration scale where inhibition reaches its midpoint. A high value points to lower potency.

In experiment [1], `Cc1cc(Nc2ccc(C(=O)O)cc2)n2nc(SCc3nc4ccccc4[nH]3)nc2n1` displayed an IC50 above 10 µM. For the same molecule, the inhibition of growth at 10 µM was 0.4% in experiment [2], 4.5% in experiment [3], 5.6% in experiment [4] and 11.9% in experiment [5].

Consider `Cc1cc(Nc2ccccc2)n2nc(SCc3nc4ccccc4[nH]3)nc2n1`, for which the IC50 in experiment [1] is above 10 µM. Besides, the inhibition of growth at 10 µM is 17.9% in experiment [2], 39.9% in experiment [3], 38% in experiment [4] and 31.6% in experiment [5].

Consider `Cc1ccc(Nc2cc(C)nc3nc(SCc4nc5ccccc5[nH]4)nn23)cc1`, for which the IC50 in experiment [1] is above 10 µM. Moreover, the inhibition of growth at 10 µM came to 22.9% in experiment [2], 43.1% in experiment [3], 35.1% in experiment [4] and 36.9% in experiment [5].

In the case of `Cc1cc(Nc2ccc(Br)cc2)n2nc(SCc3nc4ccccc4[nH]3)nc2n1`, the IC50 in experiment [1] is above 10 µM. Further, the inhibition of growth at 10 µM in experiment [2] came out at 36.7%; in experiment [3], 43.8%; in experiment [4] it was 35.2%; in experiment [5], 36.4%.

In experiment [1], `Cc1cc(Nc2ccc(C(=O)O)cc2)n2nc(SCc3ccccc3)nc2n1` showed an IC50 above 10 µM. In addition, the inhibition of growth at 10 µM in experiment [2] came to 26.7%; in experiment [3], 14.3%; in experiment [4], 34.6%; in experiment [5], 30.7%.

`Cc1cc(NCCCn2ccnc2)n2nc(SCc3ccccc3)nc2n1`: the values for the IC50 in experiment [1], in experiment [6] and in experiment [7] were above 10 µM, 16.1 µM and 12.3 µM, respectively. Besides, the inhibition of growth at 10 µM in experiment [2] is 26.2%; in experiment [3], 12.8%; in experiment [4] it was 50.2%; in experiment [5], 47.7%.

Turning to `COc1cc(Nc2cc(C)nc3nc(SCc4nc5ccccc5[nH]4)nn23)cc(OC)c1OC`, the results for the IC50 in experiment [1] and in experiment [6] were above 10 µM and 18 µM, respectively. In addition, the inhibition of growth at 10 µM in experiment [2] worked out at 28%; in experiment [3] it was 34.1%; in experiment [4], 52.4%; in experiment [5], 42.9%.

For the molecule `Cc1cc(N2CCNCC2)n2nc(SCc3ccccc3)nc2n1`, the IC50 in experiment [1] is above 10 µM. Further, the inhibition of growth at 10 µM in experiment [2] is 32.4%; in experiment [3] it was 23.9%; in experiment [4], 41.4%; in experiment [5], 29.3%.

Turning to `Cc1cc(NNC(=O)c2cnccn2)n2nc(SCc3ccccc3)nc2n1`, the IC50 came out at 1.19 µM in experiment [1] and 12.7 µM in experiment [7]. For the same molecule, the inhibition of growth at 10 µM amounted to 35.3% in experiment [2], 23.3% in experiment [3], 40.9% in experiment [4] and 63.2% in experiment [5].

Consider `Cc1cc(N)n2nc(SCc3ccccc3)nc2n1`, for which the IC50 in experiment [1] was above 10 µM; in experiment [6], 9.74 µM; in experiment [7], 8.14 µM. The inhibition of growth at 10 µM was determined as 32.3% in experiment [2], 4.7% in experiment [3], 57.3% in experiment [4] and 48.3% in experiment [5].

In the case of `Cc1cc(Nc2ccc(F)cc2)n2nc(SCc3ccccc3)nc2n1`, the IC50 in experiment [1] is above 10 µM. Moreover, the inhibition of growth at 10 µM in experiment [2] is 19.7%; in experiment [3], 37.6%; in experiment [4], 41.8%; in experiment [5] it was 43.5%.

Consider `Cc1cc(Nc2ccccc2)n2nc(SCc3ccccc3)nc2n1`, for which the IC50 is above 10 µM in experiment [1] and 16.4 µM in experiment [6]. Moreover, the inhibition of growth at 10 µM in experiment [2] stood at 35%; in experiment [3] it was 12.9%; in experiment [4] it was 50.2%; in experiment [5] it was 40.2%.

`COc1cc(Nc2cc(C)nc3nc(SCc4ccccc4)nn23)cc(OC)c1OC` had an IC50 in experiment [1] above 10 µM. The inhibition of growth at 10 µM in experiment [2] turned out to be 32.8%; in experiment [3] it was 41.6%; in experiment [4] it was 37.9%; in experiment [5] it was 13.5%.

In experiment [1], `Cc1cc(NCCc2c[nH]c3ccccc23)n2nc(SCc3ccccc3)nc2n1` registered an IC50 above 10 µM. Further, the inhibition of growth at 10 µM in experiment [2] was determined as 34.2%; in experiment [3], 7%; in experiment [4], 43.9%; in experiment [5], 24%.

As to `Cc1cc(Nc2ccc(C#N)cc2)n2nc(SCc3nc4ccccc4[nH]3)nc2n1`, the values for the IC50 in experiment [1] and in experiment [6] were above 10 µM and 13.9 µM, respectively. Further, the inhibition of growth at 10 µM in experiment [2] turned out to be 19.3%; in experiment [3] it was 26.3%; in experiment [4], 52.3%; in experiment [5], 41.9%.

In experiment [1], `Cc1cc(N2CCOCC2)n2nc(SCc3ccccc3)nc2n1` showed an IC50 above 10 µM. Moreover, the inhibition of growth at 10 µM in experiment [2] turned out to be 31%; in experiment [3], 10.6%; in experiment [4], 45.4%; in experiment [5] it was 27.3%.

As for `Cc1cc(NCCCN2CCOCC2)n2nc(SCc3ccccc3)nc2n1`, the IC50 in experiment [1] was above 10 µM; in experiment [6] it was 17 µM; in experiment [7], 15 µM. In addition, the inhibition of growth at 10 µM in experiment [2] stood at 24.9%; in experiment [3], 9.3%; in experiment [4] it was 49.2%; in experiment [5] it was 51.9%.

Take `Cc1ccc(Nc2cc(C)nc3nc(SCc4ccccc4)nn23)cc1`: in experiment [1], the IC50 was above 10 µM. For the same molecule, the inhibition of growth at 10 µM in experiment [2] came out at 26%; in experiment [3] it was 44.7%; in experiment [4], 33.7%; in experiment [5], 30.2%.

Turning to `Cc1cc(Nc2ccc(F)cc2)n2nc(SCc3nc4ccccc4[nH]3)nc2n1`, the IC50 in experiment [1] is above 10 µM. In addition, the inhibition of growth at 10 µM was 19.2% in experiment [2], 39.7% in experiment [3], 36.6% in experiment [4] and 27.6% in experiment [5].

`Cc1cc(OCCN2CCCC2)n2nc(SCc3ccccc3)nc2n1`: the IC50 in experiment [1] was above 10 µM; in experiment [6], 22.8 µM. In addition, the inhibition of growth at 10 µM in experiment [2] amounted to 28.8%; in experiment [3], 11.4%; in experiment [4], 49.8%; in experiment [5] it was 43.6%.

In turn, `Cc1cc(Nc2ccc(Cl)cc2)n2nc(SCc3nc4ccccc4[nH]3)nc2n1` gave an IC50 in experiment [1] above 10 µM. Also, the inhibition of growth at 10 µM was determined as 16.8% in experiment [2], 41.2% in experiment [3], 34.9% in experiment [4] and 33.2% in experiment [5].

As to `Cc1cc(N2CCN(CCO)CC2)n2nc(SCc3ccccc3)nc2n1`, the IC50 in experiment [1] was above 10 µM. Also, the inhibition of growth at 10 µM in experiment [2] amounted to 23.8%; in experiment [3], 5.9%; in experiment [4], 42.1%; in experiment [5], 14.9%.

Turning to `Cc1cc(N2CCC(N3CCCCC3)CC2)n2nc(SCc3ccccc3)nc2n1`, the values for the IC50 in experiment [1] and in experiment [6] were above 10 µM and 8.87 µM, respectively. The inhibition of growth at 10 µM in experiment [2] stood at 32.8%; in experiment [3], 0.3%; in experiment [4] it was 56.5%; in experiment [5], 35.6%.
